Data from patent US20250145589A1, “PYRIDINE DERIVATIVE AND USE THEREOF” (SICHUAN HUIYU PHARMACEUTICAL CO., LTD., priority 2021, published 2025).
Like-named read-outs stand apart in the source and are kept apart here.

How the values were obtained:
Format in all cases: cell-based
[1] = tested on: NCI-H358 cells (KRAS G12C mutant); experiment: NCI-H358 cell proliferation inhibition (CellTiter-Glo); conditions: H358 cells (G12C mutation), 3 days, Table 6, read-out: NCI-H358 (IC50)
[2] = tested on: MIA PaCa-2 cells (KRAS G12C mutant); experiment: MIA PaCa-2 cell anti-proliferation (CellTiter-Glo)
How it was run: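 Viable-cell luminescence (CellTiter-Glo, ≥30 min at 25 °C) measured after a 3-day, 37 °C exposure to compounds at 9 points, 4-fold spaced, in DMEM containing 10% FBS plus 2.5% horse serum. IC50 derived versus no-inhibitor wells.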

[3] = tested on: NCI-H358-AMGR drug-resistant cell line; experiment: NCI-H358-AMGR drug-resistant cell proliferation inhibitory activity test; conditions: NCI-H358-AMGR drug-resistant cells, 3 days incubation, CellTiter-Glo
How it was run: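 Luminescent CellTiter-Glo read-out after 3-day, 37° C compound exposure (8 points, 5-fold series) of AMG510-resistant NCI-H358 cells plated at 4×10^3 per well.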

[4] = tested on: MIA PaCa-2-AMGR drug-resistant cell line; experiment: MIA PaCa-2-AMGR drug-resistant cell proliferation inhibitory activity test; conditions: MIA PaCa-2-AMGR drug-resistant cells, 3 days incubation, CellTiter-Glo
How it was run: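 Viability was read by CellTiter-Glo luminescence after 3 days of compound exposure (8 points, 5-fold serial dilution), with IC50 derived relative to untreated control. Cells: AMG510-resistant MIA PaCa-2 (selected stepwise to 1 μM AMG510), 4×10^3/well, DMEM + 10% FBS + 2.5% horse serum, 37° C.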

[5] = Homo sapiens, 72 h, MIA Paca-2 cells, 3 days, Table 7, read-out: MIA PaCa-2 (IC50)

SMILES | IC50 ([1]; Homo sapiens, NCI-H358, 72 h) [nM] | IC50 [2, 5] [nM] | IC50 ([3]; 72 h) [nM] | IC50 ([4]; 72 h) [nM] | IC50 [1] [nM] | IC50 ([2]; MIA Paca-2 cells, 3 days, Table 7, read-out: MIA PaCa-2 (IC50)) [nM] | IC50 [3] [nM] | IC50 [4] [nM] | IC50 ([2]; Homo sapiens, MIA PaCa-2, 72 h, read-out: MIA PaCa-2 (IC50, nM)) [nM]
CCOc1ncc(-c2ccc3ncnc(N4CCN(C(=O)/C=C/C(C)=O)CC4)c3c2)cc1NS(=O)(=O)c1ccc(F)cc1F [Example 109, (E)-N-(2-ethoxy-5-(4-(4-(4-oxopent-2-enoyl)piperazin-1-yl)quinazolin-6-yl)pyridin-3-yl)-2,4-difluorobenzenesulfonamide] | 63.8 | 94.2 | 113 | 111 |  |  |  |  | 
COc1ncc(-c2ccc3ncnc(N4CCN(C(=O)/C=C/C(C)=O)CC4)c3c2)cc1NS(=O)(=O)c1ccc(C)cc1F [Example 111] |  |  |  |  | 15.8 | 44.4 | 118 | 90.1 | 
COc1ncc(-c2ccc3ncnc(N4CCN(C(=O)/C=C/C(C)=O)[C@@H](CC#N)C4)c3c2)cc1NS(=O)(=O)c1c(F)cccc1F [Example 116, (S,E)-N-(5-(4-(3-(cyanomethyl)-4-(4-oxopent-2-enoyl)piperazin-1-yl)quinazolin-6-yl)-2-methoxypyridin-3-yl)-2,6-difluorobenzenesulfonamide] | 95.9 | 107 | 232 | 462 |  |  |  |  | 
COc1ncc(-c2ccc3ncnc(N4CCN(C(=O)/C=C/C(C)=O)CC4)c3c2)cc1NS(=O)(=O)c1c(F)cccc1C#N [Example 122, (E)-2-cyano-6-fluoro-N-(2-methoxy-5-(4-(4-(4-oxopent-2-enoyl)piperazin-1-yl)quinazolin-6-yl)pyridin-3-yl)benzenesulfonamide] | 47.9 |  | 128 | 273 |  |  |  |  | 106
COc1ncc(-c2ccc3ncnc(N4CCN(C(=O)/C=C/C(C)=O)CC4)c3c2)cc1NS(=O)(=O)c1ccc(C#N)cc1F [Example 123, (E)-4-cyano-2-fluoro-N-(2-methoxy-5-(4-(4-(4-oxopent-2-enoyl)piperazin-1-yl)quinazolin-6-yl)pyridin-3-yl)benzenesulfonamide] | 21.2 | 84.1 | 118 | 328 |  |  |  |  | 
COc1ncc(-c2ccc3ncnc(N4CCN(C(=O)/C=C/C(C)=O)CC4)c3c2)cc1NS(=O)(=O)c1ccc(C(F)(F)F)cc1F [Example 124, (E)-2-fluoro-N-(2-methoxy-5-(4-(4-(4-oxopent-2-enoyl)piperazin-1-yl)quinazolin-6-yl)pyridin-3-yl)-4-(trifluoromethyl)benzenesulfonamide] | 19.7 | 58.4 | 85.5 | 83.9 |  |  |  |  | 
COc1ncc(-c2ccc3ncnc(N4CCN(C(=O)/C=C/C(C)=O)CC4)c3n2)cc1NS(=O)(=O)c1c(F)cccc1F [Example 131, (E)-2,6-difluoro-N-(2-methoxy-5-(4-(4-(4-oxopent-2-enoyl)piperazin-1-yl)pyrido[3,2-d]pyrimidin-6-yl)pyridin-3-yl)benzenesulfonamide] | 5.2 | 25 | 19.1 | 29.6 |  |  |  |  | 
COc1ncc(-c2ccc3ncnc(N4C5CCC4CN(C(=O)/C=C/C(C)=O)C5)c3c2)cc1NS(=O)(=O)c1ccc(F)cc1F [Example 144, 2,4-difluoro-N-(2-methoxy-5-(4-(3-((E)-4-oxopent-2-enoyl)-3,8-diazabicyclo[3.2.1]octan-8-yl)quinazolin-6-yl)pyridin-3-yl)benzenesulfonamide] | 47.8 | 58.7 | 43.1 | 56.6 |  |  |  |  | 
COc1ncc(-c2ccc3ncnc(N4CC5CCC(C4)N5C(=O)/C=C/C(C)=O)c3c2)cc1NS(=O)(=O)c1c(F)cccc1F [Example 145, 2,6-difluoro-N-(2-methoxy-5-(4-(8-((E)-4-oxopent-2-enoyl)-3,8-diazabicyclo[3.2.1]octan-3-yl)quinazolin-6-yl)pyridin-3-yl)benzenesulfonamide] | 36.2 | 77.2 | 223 | 113 |  |  |  |  | 
COc1ncc(-c2ccc3ncnc(N4CCC5(CC4)CN(C(=O)/C=C/C(C)=O)C5)c3c2)cc1NS(=O)(=O)c1ccccc1F [Example 150, (E)-2-fluoro-N-(2-methoxy-5-(4-(2-(4-oxopent-2-enoyl)-2,7-diazaspiro[3.5]nonan-7-yl)quinazolin-6-yl)pyridin-3-yl)benzenesulfonamide] | 16.4 | 58.5 | 112 | 55.1 |  |  |  |  | 
COc1ncc(-c2ccc3ncnc(N4CCN(C(=O)/C=C/C(C)=O)C[C@@H]4C)c3c2)cc1NS(=O)(=O)c1ccccc1F [Example 152, (S,E)-2-fluoro-N-(2-methoxy-5-(4-(2-methyl-4-(4-oxopent-2-enoyl)piperazin-1-yl)quinazolin-6-yl)pyridin-3-yl)benzenesulfonamide] | 29.8 | 68.8 | 62.1 | 52.1 |  |  |  |  | 
COc1ncc(-c2ccc3ncnc(N4CCN(C(=O)/C=C/C(C)=O)C[C@@H]4C)c3c2)cc1NS(=O)(=O)c1ccc(F)cc1 [Example 153, (S,E)-4-fluoro-N-(2-methoxy-5-(4-(2-methyl-4-(4-oxopent-2-enoyl)piperazin-1-yl)quinazolin-6-yl)pyridin-3-yl)benzenesulfonamide] | 59.8 | 56.7 | 100 | 49.7 |  |  |  |  | 
COc1ncc(-c2ccc3ncnc(N4CCN(C(=O)/C=C/C(C)=O)C[C@@H]4C)c3c2)cc1NS(=O)(=O)c1c(F)cc(F)cc1F [Example 154, (S,E)-2,4,6-trifluoro-N-(2-methoxy-5-(4-(2-methyl-4-(4-oxopent-2-enoyl)piperazin-1-yl)quinazolin-6-yl)pyridin-3-yl)benzenesulfonamide] | 16.7 | 28.8 | 61.6 | 32.2 |  |  |  |  | 
COc1ncc(-c2ccc3ncnc(N4CC5CCC(C4)N5C(=O)/C=C/C(C)=O)c3c2)cc1NS(=O)(=O)c1c(F)cc(F)cc1F [Example 155] | 40.3 | 77.6 | 164 | 112 |  |  |  |  | 
COc1ncc(-c2ccc3ncnc(N4CC5CCC4CN5C(=O)/C=C/C(C)=O)c3c2)cc1NS(=O)(=O)c1ccc(F)cc1F (stereo not drawn) [Example 158, (E)-2,4-difluoro-N-(2-methoxy-5-(4-(5-(4-oxopent-2-enoyl)-2,5-diazabicyclo[2.2.2]octan-2-yl)quinazolin-6-yl)pyridin-3-yl)benzenesulfonamide] | 55.2 | 140 | 155 | 136 |  |  |  |  | 
CC(=O)/C=C/C(=O)N1CCN(c2ncnc3ccc(-c4cnc(OCC(F)(F)F)c(NS(=O)(=O)c5ccc(F)cc5F)c4)cc23)CC1 [Example 159, (E)-2,4-difluoro-N-(5-(4-(4-(4-oxopent-2-enoyl)piperazin-1-yl)quinazolin-6-yl)-2-(2,2,2-trifluoroethoxy)pyridin-3-yl)benzenesulfonamide] | 172 | 357 | 361 | 226 |  |  |  |  | 
COc1ncc(-c2ccc3ncnc(N4CCN(C(=O)/C=C/C(C)=O)CC4)c3c2)cc1NS(=O)(=O)c1sc(C)nc1C [Example 160, (E)-N-(2-methoxy-5-(4-(4-(4-oxopent-2-enoyl)piperazin-1-yl)quinazolin-6-yl)pyridin-3-yl)-2,4-dimethylthiazole-5-sulfonamide] | 13 | 48.4 | 69.5 | 53.8 |  |  |  |  | 
COc1ncc(-c2ccc3ncnc(N4CCC5(CC4)CN(C(=O)/C=C/C(C)=O)C5)c3c2)cc1NS(=O)(=O)c1ccc(F)cc1 [Example 161, (E)-4-fluoro-N-(2-methoxy-5-(4-(2-(4-oxopent-2-enoyl)-2,7-diazaspiro[3.5]nonan-7-yl)quinazolin-6-yl)pyridin-3-yl)benzenesulfonamide] | 43.4 | 67.8 | 145 | 55.3 |  |  |  |  | 
COc1ncc(-c2ccc3ncnc(N4CCN(C(=O)/C=C/C(C)=O)CC4)c3c2)cc1NS(=O)(=O)c1ncc(Cl)s1 [Example 165, (E)-5-chloro-N-(2-methoxy-5-(4-(4-(4-oxopent-2-enoyl)piperazin-1-yl)quinazolin-6-yl)pyridin-3-yl)thiazole-2-sulfonamide] | 36.5 | 250 | 171 | 173 |  |  |  |  | 
C=C(C(C)=O)C(=O)N1CCN(c2ncnc3ccc(-c4cnc(OC)c(NS(=O)(=O)c5ccc(F)cc5F)c4)cc23)CC1 [Example 168, 2,4-difluoro-N-(2-methoxy-5-(4-(4-(2-methylene-3-oxobutanoyl)piperazin-1-yl)quinazolin-6-yl)pyridin-3-yl)benzenesulfonamide] | 31.2 | 48.5 | 240 | 192 |  |  |  |  | 
COc1ncc(-c2ccc3ncnc(N4CCN(C(=O)/C=C/C(C)=O)CC4)c3c2)cc1NS(=O)(=O)c1ccc(F)cc1Cl [Example 169, (E)-2-chloro-4-fluoro-N-(2-methoxy-5-(4-(4-(4-oxopent-2-enoyl)piperazin-1-yl)quinazolin-6-yl)pyridin-3-yl)benzenesulfonamide] | 5.7 | 31.7 | 36.2 | 54.4 |  |  |  |  | 
